Consider one molecule from patent US11564913B2, “Compositions and methods for treating cancer” (Children's Hospital Medical Center, priority 2019, dated 2023).

The subject of assay [1] is pPAK1(T423)/pPAK2(T402) in MDA-MB-231 cells. Kind of assay: pPAK immunoblot. The assay is classed as cell-based, human. Particulars: 1 μM, 30 min. As to the method:
FIG. 5: Cytoskeletal changes induced by IODVA1 treatment. IODVA1 inhibits lamellipodia and circular dorsal ruffle (CDR) formation in MDA-MB-231 cells and decreases Rac activation. (A) IODVA1 inhibits EGF-induced lamellipodia formation in MDA-MB-231 cells. MDA-MB-231 cells were plated on fibronectin-coated coverslips, serum starved for 4 h, incubated with the indicated concentrations of IODVA1 for 1 h, then EGF (50 ng/mL) stimulated, fixed and stained with Phalloidin Alexa Fluor 594 (F-Actin, pseudocolored red) and DAPI (nuclei, pseudocolored blue). […] The percentage of cells with CDRs was counted as the number of cells with CDRs normalized to the total number of cells in the field. Around 150 cells were counted per condition per experiment. Cells with multiple CDRs were counted only once. […] Levels of active Rac (RacGTP, % of control), active Cdc42 (Cdc42GTP, % of control) and active RhoA (RhoAGTP, % of control) were quantified using ImageJ and ImageLab and show combined data as mean±s.e.m. from at least 3 independent experiments. […]
To confirm that IODVA1 interferes with Rac activation, applicants checked the levels of active Rac and its downstream effector PAK1/2. MDA-MB-231 cells were incubated with IODVA1 (0-3 μM) for 1 h and levels of GTP-bound active Rac were measured by GST-PAK-GBD pull-downs and quantified (FIG. 5C). […]
A general note: In western blotting, separated proteins are transferred to a membrane and probed.

Assay [2] concerns MDA-MB-231 cells expressing shVav3. The assay can be described thus: Viability and proliferation, trypan blue exclusion. It is filed as cell-based, human. Particulars: 0.1-1 μM. As to the method: FIG. 16: IODVA1 decreases levels of pVav3 in in vitro and in vivo models of triple negative breast cancer. (A) Immunoblot and quantification of Vav3 protein in lysates of MDA-MB-231 triple negative breast cancer cells stably expressing scrambled or Vav3-targeting shRNAs. Viability of the MDA-MB-231 cells stably expressing shVav3 in the presence of IODVA1 (0-1 μM). Cells were grown in the presence of IODVA1 and counted by trypan blue exclusion at the indicated time points. (B) MDA-MB-231 cells were incubated with IODVA1 (3 μM) for 15 min and the levels of phosphorylated Vav3 (pY173) were assessed by immunoblotting. (C) Immunohistochemical staining of phosphorylated Vav3 in tissue derived from MDA-MB-231 xenografts treated with vehicle control or IODVA1.
Next, we tested if IODVA1 is effective in another model of Vav3-dependent cancer. We chose MDA-MB-231 triple negative breast cancer cells because these cells express high endogenous levels of Vav3 (Chen, 2015) and because Vav3 is an acknowledged target in breast cancer (Chen, 2015; Lee, 2008; Aguilar, 2014; Citterio, 2012; Lorenzo-Martin. 2019). […] Second, we incubated MDA-MB-231 cells with IODVA1 (3 μM) for 15 min and analyzed the levels of phosphorylated Vav3 (pY173) by immunoblotting. […]

For the molecule `OC1(c2ccccn2)N=C(Nc2nc3ccccc3[nH]2)N=C1c1ccccn1` (centres unmarked) [IODVA1, (Z)-2-((1H-benzo[d]imidazol-2-yl)imino)-4,5-di(pyridin-2-yl)-2,5-dihydro-1H-imidazol-5-ol], the “decrease in levels of pPAK1/2 (T423/T402)” value in assay [1] was determined as 50%. In addition, in assay [2], the viability and proliferation entry is recorded as “no effect”.
